# Measured values as given in US20160038532A1, “Treatment of Multiple Sclerosis With Combination of Laquinimod and Glatiramer Acetate” (TEVA PHARMACEUTICAL INDUSTRIES, LTD., priority 2011, published 2016).
# “And” between values parts separate entries of the source, which are not always exact repeats. Equal entries are not always repeated. Marks after values point to notes of the source that are not given here.
# Legend:
# MOG-induced EAE [1] = experiment: MOG-induced EAE, laquinimod alone and with GA blocking (Example 2.1), clinical signs; format: in vivo, C57B1/6 mice; parameters: Mortality: concentration or dose not given beside the values
# MOG-induced EAE [2] = experiment: MOG-induced EAE, lower doses of laquinimod with GA-blocking (Example 2.2); format: in vivo, C57B1/6 mice
# Method: MOG is a member of the immunoglobulin superfamily expressed exclusively in CNS myelin. It is one of the most encephalitogenic proteins and is widely used to induce EAE in different rodent strains. In C57BL/6 mice, immunization with the MOG peptide pMOG35-55 in CFA induces chronic progressive EAE.
# 24 mg MOG was diluted in 8 ml PBS (3 mg/ml, stock solution). Groups 1, 3 and 5: 3.5 ml of stock solution was diluted 1:1 with PBS. […] 4.5 ml of MOG stock solution was added to this solution.
# The high dose LAQ (5 mg/10 ml/kg) solution (40 mg in 80 ml DDW) was prepared once weekly and stored at room temperature. For the dose of 2.5 mg/kg LAQ, 25 ml of this solution were added to 25 ml DDW. For the dose 1 mg/kg 5 ml of stock solution (high dose) were added to 20 ml DDW. The compound was administered by gavage once daily during the whole experiment (30 days) at a volume of 0.2 ml/mouse.
# The mice were observed daily from the 9th day post-EAE induction (first injection of MOG) and the EAE clinical signs were scored according to the grades described in the 2 above.
# MSCH-induced EAE = MSCH-induced EAE in CSJL/F1 mice (Example 2.8); format: in vivo; parameters: key to MMS value (Mean Maximal Score) / GMS value (Group Mean Score): EAE clinical score per grading table; 5 = sacrificed or died
# Method: Disease was induced in all mice by the injection of the encephalitogenic emulsion (MSCH/CFA). The test articles and the vehicle were administered orally twice a day.
# For groups 1 and 3 to 6, 360.0 mg MSCH was suspended in 3.0 ml PBS to yield 120 mg/ml MSCH suspension.
# 0.05 ml was injected into the left foot-pad of each mouse. The concentration of MSCH in emulsion in all groups was 60 mg/mL. The dose of the MSCH in all the groups was 3.0 mg/0.05 ml/mouse. The concentration of MT in emulsion in all groups was 0.25 mg/mL. The dose of the MT in all the groups was 0.0125 mg/0.05 ml/mouse.
# 36 μL Pertussis toxin (200 μg/ml) was added to 44.964 ml PBS to yield 160 ng/ml. The pertussis toxin was administered intravenous on the day of encephalitogen injection and 48 hours later (80.0 ng/0.5 ml/mouse).
# Solutions at concentration of 0.001, 0.01, 0.03 and 0.1 mg/mL laquinimod were prepared in water for dose levels of 0.01, 0.1, 0.3 and 1.0 mg/kg respectively. The test formulations were stored at 2 to 8° C. until use in amber colored bottles.
# The mice were administered with the respective dose levels of laquinimod at volume dose level of 200 μL/mouse. The test formulations were vortexed before dispensing in syringe.
# The different dose levels laquinimod were administered to the respective groups once a day.
# Scoring of EAE clinical signs was initiated from the 10th day post-EAE induction and was continued daily until Day 23. The clinical signs were recorded on observation cards according to a grading system described in the table 23 above. Animals with score 4 for more than three days were given score 5 and sacrificed for humane reasons. For calculation purposes, the score (5) of animals that are sacrificed or died were carried forward.
# The calculations are as shown in Example 2.4.
# multiple sclerosis (MS) = conditions: daily subcutaneous injections, 20 mg/injection; cited from earlier work
# [3] = in vivo; cited from earlier work
# Multiple Sclerosis = conditions: two phase III trials; cited from earlier work
# [4] = GA-blocking 12.5 mg/kg (250 μg/mouse) in inoculum day 0
# [5] = GA-blocking 12.5 mg/kg in inoculum day 0
# [6] = GA 0.5 mg/kg (sub optimal) with encephalitogen
# [7] = GA blocking 0.5 mg/kg (sub-optimal dose), with encephalitogen
# [8] = laquinimod 5 mg/kg/day gavage, alone or + GA-blocking 12.5 mg/kg day 0
# [9] = laquinimod 25 mg/kg/day gavage, alone or + GA-blocking 12.5 mg/kg day 0
# [10] = laquinimod 2.5 mg/kg/day gavage, alone or + GA-blocking 12.5 mg/kg day 0
# [11] = LAQ 0.01 mg/kg daily, orally by gavage
# [12] = LAQ 0.1 mg/kg daily, orally by gavage
# [13] = LAQ 0.3 mg/kg daily, orally by gavage
# [14] = LAQ 1.0 mg/kg daily, orally by gavage
# [15] = laquinimod 0.1 mg/kg/day oral, alone or + GA 0.5 mg/kg
compound,measurement,setting,value
"L-glutamic acid polymer with L-alanine, L-lysine and L-tyrosine, acetate (salt) [GA]",% inhibition compared to Control (GMS),MOG-induced EAE [1]; [4],48%
same,Group Mean Score,MOG-induced EAE [1]; [4],1.70**
same,Incidence,MOG-induced EAE [1]; [4],14/16
same,Mean Disease Duration,MOG-induced EAE [1]; [4],10.9*** days
same,Mean Maximal Score,MOG-induced EAE [1]; [4],3.34**
same,Mean Onset,MOG-induced EAE [1]; [4],19.5* days
same,% inhibition compared to Control (GMS),MOG-induced EAE [2]; [5],77.5%
same,Group Mean Score,MOG-induced EAE [2]; [5],0.73***
same,Incidence,MOG-induced EAE [2]; [5],11/14
same,Mean Disease Duration,MOG-induced EAE [2]; [5],7.1*** days
same,Mean Maximal Score,MOG-induced EAE [2]; [5],2.18***
same,Mean Onset,MOG-induced EAE [2]; [5],18.7*** days
same,Incidence,MSCH-induced EAE; [6],4/11
same,MMS,MSCH-induced EAE; [6],1.1±15
same,activity according to GMS,MSCH-induced EAE; [6],79.4%
same,% Inhibition 1 (according to Incidence),MSCH-induced EAE; [7],60.0%
same,% Inhibition 2 (according to MMS),MSCH-induced EAE; [7],75.5%
same,% Inhibition 3 (according to GMS),MSCH-induced EAE; [7],79.4%( )
same,GMS value (Group Mean Score),MSCH-induced EAE; [7],0.7 ± 1.0
same,Incidence,MSCH-induced EAE; [7],4/11
same,MMS value (Mean Maximal Score),MSCH-induced EAE; [7],1.1 ± 1.5
same,Mean Duration,MSCH-induced EAE; [7],3.6 days
same,Onset,MSCH-induced EAE; [7],20.4 days
same,"effect on relapse rates, progression of disability, new MRI lesions",multiple sclerosis (MS),reduce relapse rates
CCN(C(=O)c1c(O)c2c(Cl)cccc2n(C)c1=O)c1ccccc1 [laquinimod],inhibition at 5 mg/kg,"MOG-induced EAE [1]; Mus musculus, po, 0 h, laquinimod 5 mg/kg/day gavage, alone or + GA-blocking 12.5 mg/kg day 0, read-out: % inhibition compared to control (GMS)",31.2%
same,inhibition at 25 mg/kg,"MOG-induced EAE [1]; Mus musculus, po, 0 h, laquinimod 25 mg/kg/day gavage, alone or + GA-blocking 12.5 mg/kg day 0, read-out: % inhibition compared to control (GMS)",54.4%
same,Group Mean Score,MOG-induced EAE [1]; [8],2.25**
same,Incidence,MOG-induced EAE [1]; [8],13/13
same,Mean Disease Duration,MOG-induced EAE [1]; [8],13.2*** days
same,Mean Maximal Score,MOG-induced EAE [1]; [8],4.38*
same,Mean Onset,MOG-induced EAE [1]; [8],16.8* days
same,Group Mean Score,MOG-induced EAE [1]; [9],1.49***
same,Incidence,MOG-induced EAE [1]; [9],14/15
same,Mean Disease Duration,MOG-induced EAE [1]; [9],10.0*** days
same,Mean Maximal Score,MOG-induced EAE [1]; [9],3.27***
same,Mean Onset,MOG-induced EAE [1]; [9],20.3** days
same,Mortality,"MOG-induced EAE [1]; mouse, in vivo",0/15 and 2/13
same,inhibition at 2.5 mg/kg,"MOG-induced EAE [2]; Mus musculus, po, 0 h, laquinimod 2.5 mg/kg/day gavage, alone or + GA-blocking 12.5 mg/kg day 0, read-out: % Inhibition compared to control (GMS)",53.7%
same,inhibition at 5 mg/kg,"MOG-induced EAE [2]; Mus musculus, po, 0 h, laquinimod 5 mg/kg/day gavage, alone or + GA-blocking 12.5 mg/kg day 0, read-out: % Inhibition compared to control (GMS)",≤ 68%
same,Group Mean Score,MOG-induced EAE [2]; [10],1.50**
same,Incidence,MOG-induced EAE [2]; [10],13/15
same,Mean Disease Duration,MOG-induced EAE [2]; [10],10.2*** days
same,Mean Maximal Score,MOG-induced EAE [2]; [10],3.17**
same,Mean Onset,MOG-induced EAE [2]; [10],18.9*** days
same,Mortality,MOG-induced EAE [2]; [10],1/15
same,% inhibition compared to Control (GMS),MOG-induced EAE [2]; [8],68.2%
same,Group Mean Score,MOG-induced EAE [2]; [8],1.03***
same,Incidence,MOG-induced EAE [2]; [8],12/14
same,Mean Disease Duration,MOG-induced EAE [2]; [8],8.6*** days
same,Mean Maximal Score,MOG-induced EAE [2]; [8],2.89**
same,Mean Onset,MOG-induced EAE [2]; [8],18.1*** days
same,Mortality,MOG-induced EAE [2]; [8],0/14
same,% Inhibition 1 (according to Incidence),MSCH-induced EAE; [11],0.0%
same,% Inhibition 2 (according to MMS),MSCH-induced EAE; [11],24.4%
same,% Inhibition 3 (according to GMS),MSCH-induced EAE; [11],35.3%( )
same,GMS value (Group Mean Score),MSCH-induced EAE; [11],2.2 ± 1.2
same,Incidence,MSCH-induced EAE; [11],10/11
same,MMS value (Mean Maximal Score),MSCH-induced EAE; [11],3.4 ± 1.4
same,Mean Duration,MSCH-induced EAE; [11],9.5 days
same,Mortality,MSCH-induced EAE; [11],2/11
same,Onset,MSCH-induced EAE; [11],13.7 days
same,% Inhibition 1 (according to Incidence),MSCH-induced EAE; [12],90.0%
same,% Inhibition 2 (according to MMS),MSCH-induced EAE; [12],42.2%
same,% Inhibition 3 (according to GMS),MSCH-induced EAE; [12],55.9%( )
same,GMS value (Group Mean Score),MSCH-induced EAE; [12],1.5 ± 1.2
same,Incidence,MSCH-induced EAE; [12],1/11
same,MMS value (Mean Maximal Score),MSCH-induced EAE; [12],2.6 ± 1.8
same,Mean Duration,MSCH-induced EAE; [12],6.9 days
same,Mortality,MSCH-induced EAE; [12],8/11
same,Onset,MSCH-induced EAE; [12],16.5 days
same,% Inhibition 1 (according to Incidence),MSCH-induced EAE; [13],30.0%
same,% Inhibition 2 (according to MMS),MSCH-induced EAE; [13],53.3%
same,% Inhibition 3 (according to GMS),MSCH-induced EAE; [13],73.5%( )
same,GMS value (Group Mean Score),MSCH-induced EAE; [13],0.9 ± 0.9
same,Incidence,MSCH-induced EAE; [13],7/11
same,MMS value (Mean Maximal Score),MSCH-induced EAE; [13],2.1 ± 1.8
same,Mean Duration,MSCH-induced EAE; [13],4.2 days
same,Mortality,MSCH-induced EAE; [13],1/11
same,Onset,MSCH-induced EAE; [13],17.3 days
same,% Inhibition 1 (according to Incidence),MSCH-induced EAE; [14],90.0%
same,% Inhibition 2 (according to MMS),MSCH-induced EAE; [14],93.3%
same,% Inhibition 3 (according to GMS),MSCH-induced EAE; [14],97.1%( )
same,GMS value (Group Mean Score),MSCH-induced EAE; [14],0.1 ± 0.3
same,Incidence,MSCH-induced EAE; [14],1/11
same,MMS value (Mean Maximal Score),MSCH-induced EAE; [14],0.3 ± 0.9
same,Mean Duration,MSCH-induced EAE; [14],0.5 days
same,Mortality,MSCH-induced EAE; [14],0/11
same,Onset,MSCH-induced EAE; [14],23.5 days
same,Incidence,MSCH-induced EAE; laquinimod 0.01 mg/kg/day oral,91%
same,activity according to GMS,MSCH-induced EAE; laquinimod 0.01 mg/kg/day oral,35.3%
same,activity according to incidence,MSCH-induced EAE; laquinimod 0.01 mg/kg/day oral,9.1%
same,duration of disease,MSCH-induced EAE; laquinimod 0.01 mg/kg/day oral,13.7 ± 3.8 days
same,onset of disease,MSCH-induced EAE; laquinimod 0.01 mg/kg/day oral,9.5 ± 3.9 days
same,activity according to GMS,MSCH-induced EAE; [15],55.9%
same,activity according to incidence,MSCH-induced EAE; [15],27.3%
same,activity according to GMS,MSCH-induced EAE; laquinimod 0.3 mg/kg/day oral,73.5%
same,activity according to incidence,MSCH-induced EAE; laquinimod 0.3 mg/kg/day oral,36.4%
same,activity (conclusion),"MSCH-induced EAE; laquinimod 1.0 mg/kg as printed, alone or + GA 0.5 mg/kg",55.9%
same,activity according to GMS,MSCH-induced EAE; laquinimod 1.0 mg/kg/day oral,97.1%
same,activity according to incidence,MSCH-induced EAE; laquinimod 1.0 mg/kg/day oral,90.9%
same,oral bioavailability,[3],high oral bioavailability
same,safety and tolerability profile,Multiple Sclerosis,favorable safety and tolerability profile
